Test [1] relates to KB. Description: Cytotoxicity against human epidermoid carcinoma of the mouth (KB) cell line. It is filed as functional. The note with it: read-out: ED50 (the source's name).
For test [2], the system named is SK-MEL-2. Description: Cytotoxicity against cultured human melanoma (MEL-2) cell line. The note with it: read-out: ED50 (the source's name). It is filed as functional.

Values after ≈ are worked out from the molar mass of the structure shown.

Take `C=C(C)[C@@H]1CC[C@]2(C(=O)OC)CC[C@]3(C)[C@H](CC[C@@H]4[C@@]5(C)CC[C@H](O)C(C)(C)[C@@H]5CC[C@]43C)[C@@H]12` [METHYL BETULINATE]: the EC50 worked out at 11.8 µg/mL (≈ 25.1 µM) in test [1] and 8.3 µg/mL (≈ 17.6 µM) in test [2].

On to `C=C(C)[C@@H]1CC[C@]2(C(=O)O)CC[C@]3(C)[C@H](CC[C@@H]4[C@@]5(C)CC/C(=N\OC)C(C)(C)[C@@H]5CC[C@]43C)[C@@H]12`, for which the EC50 worked out at 4.3 µg/mL (≈ 8.89 µM) in test [1] and 8.3 µg/mL (≈ 17.2 µM) in test [2].

As to `C=C(C)[C@@H]1CC[C@]2(/C=N/OC)CC[C@]3(C)[C@H](CC[C@@H]4[C@@]5(C)CC/C(=N\OC)C(C)(C)[C@@H]5CC[C@]43C)[C@@H]12`, the EC50 in test [1] was 20 µg/mL (≈ 40.3 µM); in test [2], more than 20 µg/mL.

For `C=C(C)[C@@H]1CC[C@]2(CO)CC[C@]3(C)[C@H](CC[C@@H]4[C@@]5(C)CC[C@H](O)C(C)(C)[C@@H]5CC[C@]43C)[C@@H]12` [BETULIN], the EC50 in test [1] and in test [2] was more than 20 µg/mL in each case.

With `CC(C)[C@@H]1CC[C@]2(C(=O)O)CC[C@]3(C)[C@H](CC[C@@H]4[C@@]5(C)CCC(=O)C(C)(C)[C@@H]5CC[C@]43C)[C@@H]12` [DIHYDROBETULONIC ACID], the EC50 in test [1] is more than 20 µg/mL; in test [2], 0.7 µg/mL (≈ 1.53 µM).

With `C=C(C)[C@@H]1CC[C@]2(C)CC[C@]3(C)[C@H](CC[C@@H]4[C@@]5(C)CC[C@H](O)C(C)(C)[C@@H]5CC[C@]43C)[C@@H]12` [LUPEOL], the EC50 in test [1] was more than 20 µg/mL; in test [2] it was 17.6 µg/mL (≈ 41.2 µM).

Turning to `C=C(C)[C@@H]1CC[C@]2(C(=O)O)CC[C@]3(C)[C@H](CC[C@@H]4[C@@]5(C)CC[C@H](O)C(C)(C)[C@@H]5CC[C@]43C)[C@@H]12` [BETULINIC ACID], the EC50 in test [1] is more than 20 µg/mL; in test [2] it was 1.2 µg/mL (≈ 2.63 µM).

As for `CC(C)[C@@H]1CC[C@]2(C(=O)O)CC[C@]3(C)[C@H](CC[C@@H]4[C@@]5(C)CC[C@H](O)C(C)(C)[C@@H]5CC[C@]43C)[C@@H]12` [DIHYDROBETULINIC ACID], the EC50 in test [1] is more than 20 µg/mL; in test [2], 5.8 µg/mL (≈ 12.6 µM).

As to `C=C(C)[C@@H]1CC[C@]2(C=O)CC[C@]3(C)[C@H](CC[C@@H]4[C@@]5(C)CCC(=O)C(C)(C)[C@@H]5CC[C@]43C)[C@@H]12` [BETULONAL], the EC50 in test [1] was found to be 12.9 µg/mL (≈ 29.4 µM); in test [2] it was 7.4 µg/mL (≈ 16.9 µM).

For `C=C(C)[C@@H]1CC[C@]2(C(=O)O)CC[C@]3(C)[C@H](CC[C@@H]4[C@@]5(C)CCC(=O)C(C)(C)[C@@H]5CC[C@]43C)[C@@H]12` [BETUNOLIC ACID], the EC50 in test [1] amounted to 2.5 µg/mL (≈ 5.5 µM); in test [2], 0.9 µg/mL (≈ 1.98 µM).

Regarding `C=C(C)[C@@H]1CC[C@]2(C(=O)O)CC[C@]3(C)[C@H](CC[C@@H]4[C@@]5(C)CC[C@H](N)C(C)(C)[C@@H]5CC[C@]43C)[C@@H]12`, the EC50 in test [2] turned out to be 1.3 µg/mL (≈ 2.85 µM).

Turning to `C=C(C)[C@@H]1CC[C@]2(/C=N/O)CC[C@]3(C)[C@H](CC[C@@H]4[C@@]5(C)CC/C(=N\O)C(C)(C)[C@@H]5CC[C@]43C)[C@@H]12` [BETULIN-3,28-DIOXIME], the EC50 in test [1] worked out at 3.3 µg/mL (≈ 7.04 µM); in test [2], 2.2 µg/mL (≈ 4.69 µM).

Take `CO/N=C1\CC[C@]2(C)[C@H]3CC[C@@H]4[C@H]5[C@H](C(C)C)CC[C@]5(C(=O)O)CC[C@@]4(C)[C@]3(C)CC[C@H]2C1(C)C`: the EC50 in test [1] and in test [2] was more than 20 µg/mL each time.

As to `C=C(C)[C@@H]1CC[C@]2(C)CC[C@]3(C)[C@H](CC[C@@H]4[C@@]5(C)CC[C@H](OC(=O)c6ccccc6)C(C)(C)[C@@H]5CC[C@]43C)[C@@H]12`, the EC50 in test [1] and in test [2] was more than 20 µg/mL in each case.

With `CC(C)[C@@H]1CC[C@]2(C(=O)O)CC[C@]3(C)[C@H](CC[C@@H]4[C@@]5(C)CC/C(=N\O)C(C)(C)[C@@H]5CC[C@]43C)[C@@H]12`, the EC50 is more than 20 µg/mL in test [1] and 2.2 µg/mL (≈ 4.66 µM) in test [2].
